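A five-concentration, 48-hour dose response in 96-well plates underlies each endpoint, interpolated linearly between surrounding concentrations. Here, GI50 denotes the concentration required for 50% inhibition of growth.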 Active and inactive are the calls of the source. Rule as the data show it: active = GI50 up to about 1.1 µM and inactive = higher.
Key:
Assay in all cases: inhibition of tumour cell growth, NCI panel, 48 h
SK-OV-3 = test system: SK-OV-3
CCRF-CEM = test system: CCRF-CEM
OVCAR-5 = test system: OVCAR-5
786-0 = test system: 786-0
M14 = test system: M14
OVCAR-3 = test system: OVCAR-3
HL-60 = test system: HL-60
NCI-H23 = test system: NCI-H23
SF-295 = test system: SF-295
UACC-62 = test system: UACC-62
HCT-15 = test system: HCT-15
K562 = test system: K562
U-251 = test system: U-251
SNB-19 = test system: SNB-19
HOP-62 = test system: HOP-62
HOP-92 = test system: HOP-92
LOX IMVI = test system: LOX IMVI
COLO 205 = test system: COLO 205

Compound | GI50 (SK-OV-3) | GI50 (CCRF-CEM) | GI50 (OVCAR-5) | GI50 (786-0) | GI50 (M14) | GI50 (OVCAR-3) | GI50 (HL-60) | GI50 (NCI-H23) | GI50 (SF-295) | GI50 (UACC-62) | GI50 (HCT-15) [µM] | GI50 (K562) | GI50 (U-251) | GI50 (SNB-19) | GI50 (HOP-62) | GI50 (HOP-92) | GI50 (LOX IMVI) | GI50 (COLO 205)
CC#CC1/C(=C\C(=O)OC)CCCC1O (stereo not drawn) | > 100 µM (inactive) | > 100 µM (inactive) | > 100 µM (inactive) | > 100 µM (inactive) | > 100 µM (inactive) | > 100 µM (inactive) | > 100 µM (inactive) | > 100 µM (inactive) | > 100 µM (inactive) | > 100 µM (inactive) | > 100 | > 100 µM (inactive) | > 100 µM (inactive) | > 100 µM (inactive) | > 100 µM (inactive) | – | – | –
Cc1cc(=O)oc2c1cc(OCC(=O)OCCN1CCCCC1)c1occ(C)c12 | – | > 100 µM (inactive) | > 100 µM (inactive) | > 100 µM (inactive) | > 100 µM (inactive) | > 100 µM (inactive) | > 100 µM (inactive) | > 100 µM (inactive) | > 100 µM (inactive) | > 100 µM (inactive) | > 100 | > 100 µM (inactive) | > 100 µM (inactive) | > 100 µM (inactive) | – | > 100 µM (inactive) | > 100 µM (inactive) | –
O=c1/c(=C/c2ccco2)sc2nc3ccccc3n12 | > 100 µM (inactive) | > 10 µM (inactive) | > 10 µM (inactive) | > 10 µM (inactive) | > 10 µM (inactive) | > 10 µM (inactive) | > 10 µM (inactive) | > 10 µM (inactive) | > 10 µM (inactive) | > 10 µM (inactive) | > 10 | > 10 µM (inactive) | > 10 µM (inactive) | > 10 µM (inactive) | > 100 µM (inactive) | > 10 µM (inactive) | > 10 µM (inactive) | > 100 µM (inactive)
c1ccc([S+](c2ccccc2)c2ccc(Sc3ccc([S+](c4ccccc4)c4ccccc4)cc3)cc2)cc1 | 21.9 µM (inactive) | 19.4 µM (inactive) | 12.3 µM (inactive) | 43.8 µM (inactive) | 45.5 µM (inactive) | 10.2 µM (inactive) | 2.58 µM (inactive) | 3.06 µM (inactive) | 25.8 µM (inactive) | 24 µM (inactive) | > 100 | 1.17 µM (inactive) | 15.7 µM (inactive) | 7.64 µM (inactive) | 39.7 µM (inactive) | 27.6 µM (inactive) | 18.6 µM (inactive) | 17.4 µM (inactive)
CC1(C)CCC(=O)c2c(O)ccc(O)c21 | > 100 µM (inactive) | – | > 100 µM (inactive) | > 100 µM (inactive) | – | > 100 µM (inactive) | – | > 100 µM (inactive) | > 100 µM (inactive) | 66.8 µM (inactive) | 83.9 | 26.1 µM (inactive) | > 100 µM (inactive) | > 100 µM (inactive) | – | 15.4 µM (inactive) | – | > 100 µM (inactive)
CC(NS(=O)(=O)c1ccc(Cl)cc1)C(=O)O (stereo not drawn) | > 100 µM (inactive) | > 100 µM (inactive) | > 100 µM (inactive) | > 100 µM (inactive) | > 100 µM (inactive) | > 100 µM (inactive) | > 100 µM (inactive) | > 100 µM (inactive) | > 100 µM (inactive) | > 100 µM (inactive) | > 100 | > 100 µM (inactive) | > 100 µM (inactive) | > 100 µM (inactive) | – | > 100 µM (inactive) | > 100 µM (inactive) | > 100 µM (inactive)
N#CC1CCCCC1NC1(C#N)CCCCC1 (stereo not drawn) | > 100 µM (inactive) | > 100 µM (inactive) | – | > 100 µM (inactive) | > 100 µM (inactive) | > 100 µM (inactive) | > 100 µM (inactive) | > 100 µM (inactive) | > 100 µM (inactive) | > 100 µM (inactive) | > 100 | > 100 µM (inactive) | > 100 µM (inactive) | > 100 µM (inactive) | > 100 µM (inactive) | – | > 100 µM (inactive) | > 100 µM (inactive)
C=C1CC2C(=O)N(c3ccccc3)C(=O)C2CC1n1[nH]c(=O)n(Cc2ccccc2)c1=O (stereo not drawn) | > 100 µM (inactive) | > 100 µM (inactive) | > 100 µM (inactive) | > 100 µM (inactive) | > 100 µM (inactive) | > 100 µM (inactive) | > 100 µM (inactive) | > 100 µM (inactive) | > 100 µM (inactive) | > 100 µM (inactive) | > 100 | > 100 µM (inactive) | > 100 µM (inactive) | > 100 µM (inactive) | > 100 µM (inactive) | > 100 µM (inactive) | > 100 µM (inactive) | > 100 µM (inactive)
COC(=O)C(C(=O)C(=O)Nc1ccccc1C)c1nc2ccc([N+](=O)[O-])cc2nc1O (stereo not drawn) | > 100 µM (inactive) | > 100 µM (inactive) | > 100 µM (inactive) | > 100 µM (inactive) | > 100 µM (inactive) | > 100 µM (inactive) | > 100 µM (inactive) | > 100 µM (inactive) | > 100 µM (inactive) | > 100 µM (inactive) | > 100 | > 100 µM (inactive) | > 100 µM (inactive) | > 100 µM (inactive) | > 100 µM (inactive) | – | > 100 µM (inactive) | > 100 µM (inactive)
CSc1ccc2c(cc1=O)[C@@H](NC(=O)c1cc(O)c(O)c(O)c1)CCc1cc(O)c(O)c(O)c1-2 | > 100 µM (inactive) | 3.33 µM (inactive) | 15 µM (inactive) | 34.6 µM (inactive) | 19.6 µM (inactive) | 31 µM (inactive) | 16.8 µM (inactive) | 20 µM (inactive) | 23.7 µM (inactive) | 19.2 µM (inactive) | 20.2 | 3.8 µM (inactive) | 18.6 µM (inactive) | 81.3 µM (inactive) | 49.5 µM (inactive) | – | – | 28 µM (inactive)
N/N=C(\c1nc2ccc(Cl)cc2nc1O)C(O)c1ccc(Cl)c(Cl)c1 (stereo not drawn) | > 100 µM (inactive) | > 100 µM (inactive) | > 100 µM (inactive) | 80.7 µM (inactive) | > 100 µM (inactive) | > 100 µM (inactive) | > 100 µM (inactive) | > 100 µM (inactive) | > 100 µM (inactive) | > 100 µM (inactive) | > 100 | > 100 µM (inactive) | > 100 µM (inactive) | > 100 µM (inactive) | > 100 µM (inactive) | > 100 µM (inactive) | > 100 µM (inactive) | 88.3 µM (inactive)
O=C(O)C12C3C4C1C1C2C3C41I (stereo not drawn) | > 100 µM (inactive) | > 100 µM (inactive) | > 100 µM (inactive) | > 100 µM (inactive) | > 100 µM (inactive) | > 100 µM (inactive) | > 100 µM (inactive) | > 100 µM (inactive) | > 100 µM (inactive) | > 100 µM (inactive) | > 100 | > 100 µM (inactive) | > 100 µM (inactive) | > 100 µM (inactive) | > 100 µM (inactive) | > 100 µM (inactive) | > 100 µM (inactive) | > 100 µM (inactive)
COC(=O)CC[C@@H](NC(=O)C(C)NC(=O)COC1C(O)C(COC(=O)CCCCCCCCCCNC(=O)c2ccc([N+](=O)[O-])c3[nH]c4cc(Br)ccc4c(=O)c23)OC(OCc2ccccc2)C1NC(C)=O)C(N)=O (stereo partly drawn) | > 100 µM (inactive) | > 100 µM (inactive) | 37.3 µM (inactive) | > 100 µM (inactive) | 61.4 µM (inactive) | 25.7 µM (inactive) | 23 µM (inactive) | > 100 µM (inactive) | > 100 µM (inactive) | 65.8 µM (inactive) | > 100 | 44.4 µM (inactive) | > 100 µM (inactive) | 94 µM (inactive) | 83.8 µM (inactive) | 37.1 µM (inactive) | 44.2 µM (inactive) | 96.6 µM (inactive)
CCOC(=O)C(C)(C)Oc1ccc2c(C)c(-c3ccc(Cl)cc3)c(=O)oc2c1 | – | 14.5 µM (inactive) | – | > 100 µM (inactive) | 74.8 µM (inactive) | 85.1 µM (inactive) | 18.2 µM (inactive) | 19.6 µM (inactive) | 79.6 µM (inactive) | 32.5 µM (inactive) | 34.3 | 14.7 µM (inactive) | 42.4 µM (inactive) | 51.1 µM (inactive) | 89.1 µM (inactive) | – | 34.9 µM (inactive) | 42.6 µM (inactive)
C/C=C1\CN2CCc3c([nH]c4ccccc34)C2CC1C(=O)OC (stereo not drawn) | > 322 µM (inactive) | > 322 µM (inactive) | > 322 µM (inactive) | > 322 µM (inactive) | – | > 322 µM (inactive) | > 32.2 µM (inactive) | > 322 µM (inactive) | > 322 µM (inactive) | > 322 µM (inactive) | > 322 | > 322 µM (inactive) | > 322 µM (inactive) | > 322 µM (inactive) | > 322 µM (inactive) | 169 µM (inactive) | > 322 µM (inactive) | > 322 µM (inactive)
CCCCCCc1cc2c(C)c(C)c(=O)oc2cc1OCCCOc1cc2oc(=O)c(C)c(C)c2cc1CCCCCC | > 100 µM (inactive) | > 100 µM (inactive) | > 100 µM (inactive) | > 100 µM (inactive) | > 100 µM (inactive) | > 100 µM (inactive) | > 100 µM (inactive) | > 100 µM (inactive) | > 100 µM (inactive) | > 100 µM (inactive) | > 100 | > 100 µM (inactive) | > 100 µM (inactive) | > 100 µM (inactive) | > 100 µM (inactive) | > 100 µM (inactive) | > 100 µM (inactive) | –
Cc1ccc2nc3c(C(=O)NCCN(C)C)cccc3nc2c1 | 14.8 µM (inactive) | – | 6.34 µM (inactive) | 11.5 µM (inactive) | 5.12 µM (inactive) | 5.38 µM (inactive) | 5.45 µM (inactive) | 4.26 µM (inactive) | 5.22 µM (inactive) | 4.35 µM (inactive) | 2.9 | 2.47 µM (inactive) | 5.55 µM (inactive) | 5.96 µM (inactive) | 3.85 µM (inactive) | 2.38 µM (inactive) | 1.82 µM (inactive) | 2.59 µM (inactive)
